Reference: patent US10888547B2, “Amorphous and a crystalline form of genz 112638 hemitartrate as inhibitor of glucosylceramide synthase” (Genzyme Corporation, priority 2009, dated 2021)

Key:
Assay type in all cases: cell-based
[1] = target: T1, Non-lysosomal glucosylceramidase (GBA2) (Homo sapiens, UniProt Q9HCG7); experiment: Non-lysosomal glucosylceramidase in intact human cells, C6-NBD-glucosylceramide substrate; conditions: read-out: Enzyme specificities, IC50: Non-lysosomal glucosylceramidase (GBA2)
T1 construct: were assayed in intact human cells using C6-NBD-glucosylceramide as substrate; endogenous in cells
T1 sequence (Q9HCG7 1-927): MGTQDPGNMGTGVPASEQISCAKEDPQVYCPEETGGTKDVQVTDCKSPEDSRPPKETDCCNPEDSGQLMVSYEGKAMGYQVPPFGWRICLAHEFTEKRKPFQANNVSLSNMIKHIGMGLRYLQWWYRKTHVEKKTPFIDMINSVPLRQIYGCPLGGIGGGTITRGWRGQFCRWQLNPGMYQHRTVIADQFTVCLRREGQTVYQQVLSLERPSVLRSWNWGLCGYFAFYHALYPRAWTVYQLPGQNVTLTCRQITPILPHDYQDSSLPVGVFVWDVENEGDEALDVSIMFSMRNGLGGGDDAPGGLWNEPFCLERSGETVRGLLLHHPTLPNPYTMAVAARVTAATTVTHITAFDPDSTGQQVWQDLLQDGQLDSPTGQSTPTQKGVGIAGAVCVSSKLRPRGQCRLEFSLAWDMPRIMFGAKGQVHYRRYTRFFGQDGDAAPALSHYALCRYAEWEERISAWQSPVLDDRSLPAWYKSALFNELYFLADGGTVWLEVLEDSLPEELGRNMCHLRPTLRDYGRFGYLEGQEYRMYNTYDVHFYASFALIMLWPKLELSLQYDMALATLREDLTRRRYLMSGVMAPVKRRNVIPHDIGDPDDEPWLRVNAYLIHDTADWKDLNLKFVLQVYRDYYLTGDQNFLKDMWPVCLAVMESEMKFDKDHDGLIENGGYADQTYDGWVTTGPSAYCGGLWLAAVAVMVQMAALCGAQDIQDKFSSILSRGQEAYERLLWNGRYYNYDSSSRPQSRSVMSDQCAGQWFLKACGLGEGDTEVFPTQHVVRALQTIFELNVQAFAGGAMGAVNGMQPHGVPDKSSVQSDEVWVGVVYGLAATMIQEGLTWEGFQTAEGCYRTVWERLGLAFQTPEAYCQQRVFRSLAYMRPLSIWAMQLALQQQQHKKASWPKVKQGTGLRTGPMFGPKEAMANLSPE
Experimental: (§1) Non-lysosomal glucosylceramidase and lysosomal glucocerebrosidase were assayed in intact human cells using C6-NBD-glucosylceramide as substrate (see H. S. Overkleeft, et al. J. Biol. Chem. 273 (1998) 26522-26527, the entire teachings of which are incorporated herein by reference). Conduritol β epoxide (a specific inhibitor of lysosomal glucocerebrosidase) was used to differentiate lysosomal versus the non-lysosomal activity. Glucocerebrosidase activity was also measured by fluorescence-activated cell sorting (FACS). […] Cells were immediately chilled on ice and the fluorescence quantitated is above.

[2] = target: T2, Lysosomal glucocerebrosidase (GBA1) (Homo sapiens, UniProt P04062); experiment: Lysosomal glucocerebrosidase in intact human cells / FACS in K562 cells
T2 construct: endogenous in cells; K562 cells for the FACS assay
T2 sequence (P04062 40-536): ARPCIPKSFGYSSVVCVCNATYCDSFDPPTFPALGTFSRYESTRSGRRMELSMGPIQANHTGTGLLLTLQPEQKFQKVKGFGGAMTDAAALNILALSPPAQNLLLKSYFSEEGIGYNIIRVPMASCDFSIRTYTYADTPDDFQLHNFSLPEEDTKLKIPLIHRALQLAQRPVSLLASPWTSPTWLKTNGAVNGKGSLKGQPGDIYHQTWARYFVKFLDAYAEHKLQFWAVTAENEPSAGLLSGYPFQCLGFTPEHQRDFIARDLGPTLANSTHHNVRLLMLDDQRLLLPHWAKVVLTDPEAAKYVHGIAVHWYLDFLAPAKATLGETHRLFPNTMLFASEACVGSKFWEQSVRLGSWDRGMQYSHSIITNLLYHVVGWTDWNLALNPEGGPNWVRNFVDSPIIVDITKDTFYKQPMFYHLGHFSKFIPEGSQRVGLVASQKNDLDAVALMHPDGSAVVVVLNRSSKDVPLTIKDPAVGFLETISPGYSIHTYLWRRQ
Experimental: as §1

GM3 in B16/F10 cells = experiment: Flow cytometry of cell surface GM3 in intact cells
Description: Since […] the first and rate-limiting step in the biosynthesis of glycosphingolipids, a flow cytometry assay that measured cell surface levels of GM 1 and GM3 was used to indirectly assess the activity of the inhibitor in intact cells.

For `CCCCCCCC(=O)N[C@H](CN1CCCC1)[C@H](O)c1ccc2c(c1)OCCO2` [Formula (I) Hemitartrate], the IC50 [1] was 1600 µM, the “inhibition of glucocerebrosidase activity” value ([2]; at the effective dose) was “no measurable inhibition” and the IC50 ([2]; read-out: Enzyme specificities, IC50: Lysosomal glucocerebrosidase (GBA1)) was over 2500 µM. The “inhibition of lysosomal glucocerebrosidase” value ([2]; up to the highest concentration of 2500 μM) was “no inhibition”, the IC50 (GM3 in B16/F10 cells; Mus musculus, 72 h incubation, printed range 12-48 nM, read-out: mean IC50 for inhibiting the cell surface presentation of GM3) was 0.029 µM and the cellular toxicity (GM3 in B16/F10 cells; up to the highest dose (0.6-1000 nM), 72 h) was “No overt cellular toxicity”.
